Measured values: ChEMBL document CHEMBL1145373, “Syntheses of potent, selective, and orally bioavailable indazole-pyridine series of protein kinase B/Akt inhibitors with reduced hypotension” (J Med Chem, 2007)
pEC50, pIC50: −log10 of the molar value.

Assays:
[1] = Cytotoxicity against human MIA PaCa cells by MTT assay; type: functional, cell-based
[2] = molecular target: cAMP-dependent protein kinase (PKA) (Homo sapiens, UniProt P22694+P17612+P22612); test: Inhibition of PKA; type: protein assay
[3] = Oral bioavailability in mouse at 10 mg/kg, po; type: ADME, organism-based; details: in vivo
[4] = AUC in mouse at 10 mg/kg, po; type: ADME, organism-based; design: dose 10 mg/kg, route oral; details: plasma
[5] = Half life in mouse at 10 mg/kg, po; type: ADME, organism-based; design: dose 10 mg/kg, route oral; details: in vivo
[6] = Toxicity assessed as prolongation of action potential duration in dog purkinje fibres at 20 uM; type: tissue-based, Canis lupus familiaris, Purkinje fiber
[7] = Oral bioavailability in dog at 2.5 mg/kg, po; type: ADME, organism-based, Canis lupus familiaris; details: in vivo
[8] = Oral bioavailability in orally dosed rat; type: ADME, organism-based; details: in vivo
[9] = Hypotensive effect in dog femoral artery by femoral artery relaxation assay; type: functional, tissue-based, Canis lupus familiaris
[10] = Half life in mouse at 3 mg/kg, iv; type: ADME, organism-based; design: dose 3 mg/kg, route intravenous; details: in vivo
[11] = tested on: Mus musculus; test: Toxicity assessed as decrease in MAP in mouse at 150 mg/kg, po; type: organism-based; design: dose 150 mg/kg, route oral; details: in vivo
[12] = molecular target: Voltage-gated inwardly rectifying potassium channel KCNH2 (Homo sapiens, UniProt Q12809); test: Inhibition of hERG by patch clamp assay; type: toxicity
[13] = tested on: Canis familiaris; test: Cardiovascular toxicity assessed as induction of acute hypotension in dog at 25 mg/kg, iv by femoral artery relaxation assay; type: organism-based, Canis lupus familiaris; design: dose 25 mg/kg, route intravenous; details: in vivo
[14] = tested on: Canis familiaris; test: Toxicity assessed as decrease in MAP in dog infused at 0.48 mg/kg/min; type: organism-based, Canis lupus familiaris; details: in vivo

Voltage-gated inwardly rectifying potassium channel KCNH2, sequence (Q12809 whole entry): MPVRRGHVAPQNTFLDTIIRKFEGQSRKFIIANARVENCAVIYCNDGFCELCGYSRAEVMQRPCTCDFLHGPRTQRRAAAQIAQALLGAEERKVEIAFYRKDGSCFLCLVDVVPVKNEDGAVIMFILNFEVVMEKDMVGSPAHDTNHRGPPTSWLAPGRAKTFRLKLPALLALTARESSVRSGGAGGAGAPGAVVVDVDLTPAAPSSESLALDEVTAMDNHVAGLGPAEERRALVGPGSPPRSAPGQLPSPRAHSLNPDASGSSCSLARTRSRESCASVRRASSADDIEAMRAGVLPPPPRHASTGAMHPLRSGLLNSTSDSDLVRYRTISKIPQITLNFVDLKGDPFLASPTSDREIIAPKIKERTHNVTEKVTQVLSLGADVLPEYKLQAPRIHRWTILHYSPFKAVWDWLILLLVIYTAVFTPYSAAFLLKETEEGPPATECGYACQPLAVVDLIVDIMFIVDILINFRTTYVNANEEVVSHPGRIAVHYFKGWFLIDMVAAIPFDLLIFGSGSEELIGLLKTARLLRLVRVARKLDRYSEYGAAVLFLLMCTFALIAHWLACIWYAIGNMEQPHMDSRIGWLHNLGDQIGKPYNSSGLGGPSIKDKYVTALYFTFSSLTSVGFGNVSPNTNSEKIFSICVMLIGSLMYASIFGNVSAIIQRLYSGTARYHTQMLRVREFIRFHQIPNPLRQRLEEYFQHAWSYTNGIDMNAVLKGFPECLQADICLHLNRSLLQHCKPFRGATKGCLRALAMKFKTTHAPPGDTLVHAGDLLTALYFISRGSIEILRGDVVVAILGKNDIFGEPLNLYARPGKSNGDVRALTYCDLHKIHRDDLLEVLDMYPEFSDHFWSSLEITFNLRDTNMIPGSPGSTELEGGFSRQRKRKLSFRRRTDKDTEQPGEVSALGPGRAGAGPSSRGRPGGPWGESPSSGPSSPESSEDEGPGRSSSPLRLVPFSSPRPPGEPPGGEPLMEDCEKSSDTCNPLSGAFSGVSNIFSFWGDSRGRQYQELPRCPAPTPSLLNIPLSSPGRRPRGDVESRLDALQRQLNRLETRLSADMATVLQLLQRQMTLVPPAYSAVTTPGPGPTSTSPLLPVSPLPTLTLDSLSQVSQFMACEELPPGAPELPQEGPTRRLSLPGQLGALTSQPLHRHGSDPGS

| Compound | pEC50 [1] | other results |
| --- | --- | --- |
| Cc1n[nH]c2ccc(-c3cncc(OC[C@@H](N)Cc4ccccc4OC(F)(F)F)c3)cc12 | 6.64 | – |
| COc1ccc(F)cc1C[C@H](N)COc1cncc(-c2ccc3[nH]nc(C)c3c2)c1 | 6.64 | – |
| Cc1n[nH]c2ccc(-c3cncc(OC[C@@H](N)Cc4cccc(C(F)(F)F)c4)c3)cc12 | 6.22 | IC50 [2]: 5 nM |
| Cc1n[nH]c2ccc(-c3cncc(OC[C@@H](N)Cc4ccc(F)c(C(F)(F)F)c4)c3)cc12 | 6.22 | – |
| Cc1n[nH]c2ccc(-c3cncc(OC[C@@H](N)Cc4ccc5c(c4)OC(F)(F)C(F)(F)O5)c3)cc12 | 5.43 | – |
| Cc1n[nH]c2ccc(-c3cncc(OC[C@@H](N)Cc4cccc(OCC5CCNCC5)c4)c3)cc12 | 6.60 | – |
| Cc1n[nH]c2ccc(-c3cncc(OC[C@@H](N)Cc4cccc(OCC5CCCCC5)c4)c3)cc12 | 4.78 | – |
| Cc1n[nH]c2ccc(-c3cncc(OC[C@@H](N)Cc4cccc(OCC5CCN(C)CC5)c4)c3)cc12 | 5.90 | – |
| Cc1n[nH]c2ccc(-c3cncc(OC[C@@H](N)Cc4cccc(OCCN)c4)c3)cc12 | 5.32 | – |
| N[C@H](COc1cncc(-c2cc3cn[nH]c3cn2)c1)Cc1cccc(C(F)(F)F)c1 | 5.62 | IC50 [2]: 78 nM |
| Cc1n[nH]c2cnc(-c3cncc(OC[C@@H](N)Cc4cccc(C(F)(F)F)c4)c3)cc12 | 6.43 | bioavailability [3]: 25%; AUC [4]: 1.7 µM·h; IC50 [2]: 13 nM; half-life [5]: 1.84 h; Activity [6]: -4% |
| Cc1cc(C[C@H](N)COc2cncc(-c3ccc4[nH]nc(C)c4c3)c2)ccc1Br | 5.90 | – |
| Cc1ccc(C[C@H](N)COc2cncc(-c3ccc4[nH]nc(C)c4c3)c2)cc1F | 6.48 | – |
| Cc1cc(C)c(C[C@H](N)COc2cncc(-c3ccc4[nH]nc(C)c4c3)c2)c(C)c1 | 5.79 | – |
| Cc1n[nH]c2ccc(-c3cncc(OC[C@@H](N)Cc4cccc(OC(F)(F)F)c4)c3)cc12 | 6.08 | – |
| Cc1n[nH]c2ccc(-c3cncc(OC[C@@H](N)Cc4cc(C(F)(F)F)ccc4F)c3)cc12 | 6.01 | – |
| Cc1n[nH]c2ccc(-c3cncc(OC[C@@H](N)Cc4ccc(C(F)(F)F)cc4F)c3)cc12 | 5.54 | – |
| Cc1n[nH]c2ccc(-c3cncc(OC[C@@H](N)Cc4ccc(OC(F)(F)F)cc4)c3)cc12 | 5.77 | – |
| Cc1n[nH]c2ccc(-c3cncc(OC[C@@H](N)Cc4ccc5c(c4)OCO5)c3)cc12 | 6.24 | – |
| Cc1n[nH]c2ccc(-c3cncc(OC[C@@H](N)Cc4cccc5c4OC(F)(F)O5)c3)cc12 | 6.17 | – |
| Cc1n[nH]c2ccc(-c3cncc(OC[C@@H](N)Cc4ccc(Br)cc4F)c3)cc12 | 6.05 | – |
| Cc1n[nH]c2ccc(-c3cncc(OC[C@@H](N)Cc4ccc(Br)c(F)c4)c3)cc12 | 6.37 | – |
| Cc1ccc(F)cc1C[C@H](N)COc1cncc(-c2ccc3[nH]nc(C)c3c2)c1 | 6.62 | – |
| Cc1n[nH]c2ccc(-c3cncc(OC[C@@H](N)Cc4cccc(F)c4)c3)cc12 | 6.59 | – |
| Cc1n[nH]c2ccc(-c3cncc(OC[C@@H](N)Cc4ccc(F)cc4F)c3)cc12 | 6.03 | – |
| Cc1n[nH]c2ccc(-c3cncc(OC[C@@H](N)Cc4cccc(I)c4)c3)cc12 | 6.09 | – |

| Compound | pEC50 [1] | other results |
| --- | --- | --- |
| Cc1n[nH]c2ccc(-c3cncc(OC[C@@H](N)Cc4ccc(F)c(F)c4F)c3)cc12 | 6.54 | – |
| Cc1n[nH]c2ccc(-c3cncc(OC[C@@H](N)Cc4cccc(Cl)c4)c3)cc12 | 6.35 | – |
| Cc1n[nH]c2ccc(-c3cncc(OC[C@@H](N)Cc4ccc(Cl)cc4)c3)cc12 | 6.36 | – |
| Cc1n[nH]c2ccc(-c3cncc(OC[C@@H](N)Cc4ccccc4Br)c3)cc12 | 6.47 | – |
| Cc1n[nH]c2ccc(-c3cncc(OC[C@@H](N)Cc4ccc(Br)cc4)c3)cc12 | 6.15 | – |
| Cc1n[nH]c2ccc(-c3cncc(OC[C@@H](N)Cc4ccc(Cl)c(F)c4)c3)cc12 | 6.57 | bioavailability [3]: 84%; AUC [4]: 2.3 µM·h; bioavailability [7]: 40%; bioavailability [8]: 38%; pEC50 [9]: 5.22; half-life [5]: 2.1 h; Activity [6]: -1.3% |
| Cc1n[nH]c2ccc(-c3cncc(OC[C@@H](N)Cc4cccc(Cl)c4Cl)c3)cc12 | 6.68 | – |
| Cc1n[nH]c2ccc(-c3cncc(OC[C@@H](N)Cc4ccc(Cl)c(Cl)c4)c3)cc12 | 6.31 | – |
| Cc1n[nH]c2ccc(-c3cncc(OC[C@@H](N)Cc4cc(F)cc(C(F)(F)F)c4)c3)cc12 | 5.86 | – |
| Cc1n[nH]c2ccc(-c3cncc(OC[C@@H](N)Cc4ccc(C(F)(F)F)c(F)c4)c3)cc12 | 5.84 | – |
| Cc1n[nH]c2ccc(-c3cncc(OC[C@@H](N)Cc4ccc(F)c(Cl)c4)c3)cc12 | 6.17 | – |
| Cc1n[nH]c2ccc(-c3cncc(OC[C@@H](N)Cc4cc(Cl)cc(Cl)c4)c3)cc12 | 6.00 | – |
| Cc1cc(F)ccc1C[C@H](N)COc1cncc(-c2ccc3[nH]nc(C)c3c2)c1 | 6.47 | – |
| Cc1n[nH]c2ccc(-c3cncc(OC[C@@H](N)Cc4ccccc4)c3)cc12 | 6.19 | half-life [10]: 1 h; bioavailability [3]: 70%; AUC [4]: 2 µM·h; half-life [5]: 1 h; Activity [11]: 31 mmHg; Activity [6]: Toxic; pIC50 [12]: 4.87 |
| Cc1n[nH]c2ccc(-c3cncc(OC[C@@H](N)Cc4cccc(OCCC5CCNCC5)c4)c3)cc12 | 5.56 | – |
| N[C@H](COc1cncc(-c2ccc3c(c2)/C(=C/c2ccc[nH]2)C(=O)N3)c1)Cc1ccccc1 | – | half-life [10]: 0.5 h; bioavailability [3]: 0%; pEC50 [9]: 3.45; Activity [13]: 30 mmHg |
| N[C@H](COc1cncc(-c2cc3c(Cl)n[nH]c3cn2)c1)Cc1cccc(C(F)(F)F)c1 | 5.86 | IC50 [2]: 15 nM |
| Cc1n[nH]c2ccc(-c3cncc(OC[C@@H](N)Cc4ccccc4Cl)c3)cc12 | 6.42 | – |
| Cc1n[nH]c2ccc(-c3cncc(OC[C@@H](N)Cc4cccc(Br)c4)c3)cc12 | 6.43 | – |
| Cc1n[nH]c2ccc(-c3cncc(OC[C@@H](N)Cc4cccc(OCCN5CCOCC5)c4)c3)cc12 | 4.89 | – |
| Cc1n[nH]c2cnc(-c3cncc(OC[C@@H](N)Cc4cccc(F)c4F)c3)cc12 | 6.59 | IC50 [2]: 7 nM |
| Cc1cc(C[C@H](N)COc2cncc(-c3ccc4[nH]nc(C)c4c3)c2)ccc1F | 5.97 | – |
| Cc1n[nH]c2ccc(-c3cncc(OC[C@@H](N)Cc4cccc(F)c4F)c3)cc12 | 6.74 | IC50 [2]: 9 nM |
| N[C@H](COc1cncc(-c2ccc3c(c2)/C(=C\c2ccco2)C(=O)N3)c1)Cc1ccccc1 (stereo in doubt) | – | half-life [10]: 1.15 h; bioavailability [3]: 0% |
| Cc1n[nH]c2ccc(-c3cncc(OC[C@@H](N)Cc4c[nH]c5ccccc45)c3)cc12 [A-443654] | – | half-life [10]: 0.6 h; half-life [5]: 0.6 h; Activity [14]: 60 mmHg; Activity [6]: 2.4% |
